pIC50: −log10 of the molar value.

This is an account of results in ChEMBL document CHEMBL3596115, “Discovery of novel guanidinophenylpyrazole human acrosin inhibitors by molecular hybridization” (Medchemcomm, 2014).

One assay has as its target Acrosin (Homo sapiens, UniProt P10323). Nature of the assay: Inhibition of acrosin in human liquefied human semen using BAPNA incubated at 37.8 degC for 3 hrs by spectrophotometry.
Assay [1] in a line: Inhibition of pig trypsin. Further details: species or system Sus scrofa.

Sequence of Acrosin (P10323 20-42 limits assumed): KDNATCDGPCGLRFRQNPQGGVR
Sequence of Acrosin (P10323 43-343 limits assumed): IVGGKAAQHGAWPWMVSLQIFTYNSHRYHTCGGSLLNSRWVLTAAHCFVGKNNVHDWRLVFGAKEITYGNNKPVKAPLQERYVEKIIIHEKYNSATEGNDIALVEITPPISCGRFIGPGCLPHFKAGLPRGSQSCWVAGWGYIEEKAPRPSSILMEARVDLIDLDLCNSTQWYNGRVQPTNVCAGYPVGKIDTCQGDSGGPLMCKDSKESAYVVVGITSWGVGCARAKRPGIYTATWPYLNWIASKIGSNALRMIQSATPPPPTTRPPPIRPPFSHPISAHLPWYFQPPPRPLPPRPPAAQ

The pIC50 is −log10 of the IC50, conventionally taken in molar units. A high value points to a low IC50. `COC(=O)c1ccc(OC(=O)c2ccc(NC(=N)N)cc2)cc1` showed a pIC50 against Acrosin of 5.62.
On Acrosin, `N=C(N)Nc1ccc(-c2cc(C(=O)Nc3ccc(F)cc3)n[nH]2)cc1` showed a negative logarithm of the IC50 (pIC50) of 4.61. Compared with the last compound, the pIC50 is 1.01 log units lower.
Regarding `N=C(N)Nc1ccc(-c2cc(C(=O)Nc3ccccc3)n[nH]2)cc1`, the pIC50 at Acrosin is 4.82.
As to `COc1ccc(NC(=O)c2cc(-c3ccc(NC(=N)N)cc3)[nH]n2)c(OC)c1`, the pIC50 against Acrosin is 5.62.
With `COc1ccc(OC)c(NC(=O)c2cc(-c3ccc(NC(=N)N)cc3)[nH]n2)c1`, the pIC50 was 2.68 in assay [1] and 5.90 at Acrosin.
In turn, `Cc1cccc(NC(=O)c2cc(-c3ccc(NC(=N)N)cc3)[nH]n2)c1` had a pIC50 against Acrosin of 5.03.
Turning to `COc1ccc(NC(=O)c2cc(-c3ccc(NC(=N)N)cc3)[nH]n2)cc1`, the pIC50 against Acrosin is 4.95.
Still for that read-out and setting: the value for `N=C(N)Nc1ccc(-c2cc(C(=O)Nc3cccc(Cl)c3)n[nH]2)cc1` was 4.75; that for `N=C(N)Nc1ccc(-c2cc(C(=O)Nc3ccc(Br)cc3)n[nH]2)cc1` was 4.79.
In turn, `CCOC(=O)c1ccccc1NC(=O)c1cc(-c2ccc(NC(=N)N)cc2)[nH]n1` had a pIC50 against Acrosin of 5.24.
On Acrosin, `N=C(N)Nc1ccc(-c2cc(C(=O)Nc3ccc4c(c3)OCCO4)n[nH]2)cc1` gave a pIC50 of 4.59.
The same measure, in the same setting: under `Cc1ccccc1NC(=O)c1cc(-c2ccc(NC(=N)N)cc2)[nH]n1` stands 4.96.
Still for that read-out and setting: the value for `Cc1cc(C)cc(NC(=O)c2cc(-c3ccc(NC(=N)N)cc3)[nH]n2)c1` was 5.02.
The compound `N=C(N)Nc1ccc(-c2cc(C(=O)Nc3ccc(Cl)cc3)n[nH]2)cc1` gave a negative logarithm of the IC50 (pIC50) on Acrosin of 4.62. Compared with the last compound, the pIC50 is 0.40 log units lower.
Regarding `Cc1cccc(NC(=O)c2cc(-c3ccc(NC(=N)N)cc3)[nH]n2)c1C`, the pIC50 at Acrosin is 5.07.
`N=C(N)Nc1ccc(-c2cc(C(=O)Nc3cccc(C(F)(F)F)c3)n[nH]2)cc1` gave a pIC50 on Acrosin of 4.62.
On the same count and under the same terms, the value for `Cc1ccc(C)c(NC(=O)c2cc(-c3ccc(NC(=N)N)cc3)[nH]n2)c1` was 5.13.
`CCN(CC)c1ccc(NC(=O)c2cc(-c3ccc(NC(=N)N)cc3)[nH]n2)cc1`: the pIC50 at Acrosin is 4.59.
Regarding `N=C(N)Nc1ccc(-c2cc(C(=O)Nc3cccc(Br)c3)n[nH]2)cc1`, at Acrosin, the pIC50 was 4.88.
As for `N=C(N)Nc1ccc(-c2cc(C(=O)Nc3cccc4ccccc34)n[nH]2)cc1`, the negative-log IC50 (pIC50) on Acrosin is 4.61.
Still for that read-out and setting: under `CC(C)(C)c1ccc(NC(=O)c2cc(-c3ccc(NC(=N)N)cc3)[nH]n2)cc1` stands 5.23; under `Cc1cccc(C)c1NC(=O)c1cc(-c2ccc(NC(=N)N)cc2)[nH]n1`, 5.36.
At Acrosin, `COc1ccc(NC(=O)c2cc(-c3ccc(NC(=N)N)cc3)[nH]n2)cc1OC` had a pIC50 of 5.46.
As to `N=C(N)Nc1ccc(-c2cc(C(=O)Nc3ccc(O)cc3)n[nH]2)cc1`, on Acrosin, the pIC50 is 4.55.
`N=C(N)Nc1ccc(-c2cc(C(=O)Nc3ccc(Nc4ccccc4)cc3)n[nH]2)cc1`: the pIC50 against Acrosin is 4.57.
For `COc1cccc(NC(=O)c2cc(-c3ccc(NC(=N)N)cc3)[nH]n2)c1`, the pIC50 at Acrosin is 5.62. Against the preceding compound, the pIC50 is 1.05 log units higher.
Consider `N=C(N)Nc1ccc(-c2cc(C(=O)Nc3ccc(C(F)(F)F)cc3)n[nH]2)cc1`, for which the pIC50 on Acrosin is 4.78.
On Acrosin, `CCOC(=O)c1cc(-c2ccc(NC(=N)N)cc2)[nH]n1` gave a pIC50 below 4.00.
`N=C(N)Nc1ccc(-c2cc(C(=O)O)n[nH]2)cc1` had a pIC50 against Acrosin below 4.00.
